pIC50: −log10 of the molar value.
How the values were obtained:
[1] = target: Poly [ADP-ribose] polymerase 1 (Homo sapiens, UniProt P09874); test: Inhibition of PARP1 (unknown origin) incubated for 1 hr by ELISA
[2] = target: Cyclin-dependent kinase 9 (Homo sapiens, UniProt P50750)
Description: Inhibition of CDK9 (unknown origin) using lipid substrate incubated for 40 mins in presence of ATP by kinase-Glo plus luminescence assay

[3] = target: CDK9/cyclin T1 (Homo sapiens) (UniProt O60563+P50750); conditions: dose 200.0 nM, time 70.0 min
HeLa = test: cells; conditions: Homo sapiens, 48 h
Description: Antiproliferative activity against human HeLa cells assessed as inhibition of cell proliferation incubated for 48 hrs by CCK-8 assay

MCF7 = test: cells; conditions: Homo sapiens, MCF7, 48 h
Description: Antiproliferative activity against human MCF7 cells assessed as inhibition of cell proliferation incubated for 48 hrs by CCK-8 assay

HCT-116 = test: cells; conditions: Homo sapiens, HCT-116, 48 h
Description: Antiproliferative activity against human HCT-116 cells assessed as inhibition of cell proliferation incubated for 48 hrs by CCK-8 assay

MOLM-13 = test: Antiproliferative activity against human MOLM-13 cells assessed as inhibition of cell proliferation incubated for 48 hrs by CCK-8 assay; type: functional, cell-based; conditions: MOLM-13, 48 h
MDA-MB-231 = test: cells; conditions: Homo sapiens, MDA-MB-231, 48 h
Description: Antiproliferative activity against human MDA-MB-231 cells assessed as inhibition of cell proliferation incubated for 48 hrs by CCK-8 assay

MV4-11 = test: Antiproliferative activity against human MV4-11 cells assessed as inhibition of cell proliferation incubated for 48 hrs by CCK-8 assay; type: functional, cell-based; conditions: MV4-11, 48 h

Chain of Cyclin-dependent kinase 9 (P50750 whole entry): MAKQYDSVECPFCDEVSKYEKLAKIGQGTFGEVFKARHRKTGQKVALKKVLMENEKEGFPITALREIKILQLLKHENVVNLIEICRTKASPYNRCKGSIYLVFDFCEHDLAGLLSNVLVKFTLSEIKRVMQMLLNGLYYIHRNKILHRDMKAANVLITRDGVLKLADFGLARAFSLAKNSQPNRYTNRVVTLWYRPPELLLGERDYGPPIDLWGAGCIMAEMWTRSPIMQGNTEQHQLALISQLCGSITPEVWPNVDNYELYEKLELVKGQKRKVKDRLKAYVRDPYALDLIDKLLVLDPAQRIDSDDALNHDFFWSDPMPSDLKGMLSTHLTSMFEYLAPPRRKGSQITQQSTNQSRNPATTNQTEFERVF
Chain of Poly [ADP-ribose] polymerase 1 (P09874 whole entry): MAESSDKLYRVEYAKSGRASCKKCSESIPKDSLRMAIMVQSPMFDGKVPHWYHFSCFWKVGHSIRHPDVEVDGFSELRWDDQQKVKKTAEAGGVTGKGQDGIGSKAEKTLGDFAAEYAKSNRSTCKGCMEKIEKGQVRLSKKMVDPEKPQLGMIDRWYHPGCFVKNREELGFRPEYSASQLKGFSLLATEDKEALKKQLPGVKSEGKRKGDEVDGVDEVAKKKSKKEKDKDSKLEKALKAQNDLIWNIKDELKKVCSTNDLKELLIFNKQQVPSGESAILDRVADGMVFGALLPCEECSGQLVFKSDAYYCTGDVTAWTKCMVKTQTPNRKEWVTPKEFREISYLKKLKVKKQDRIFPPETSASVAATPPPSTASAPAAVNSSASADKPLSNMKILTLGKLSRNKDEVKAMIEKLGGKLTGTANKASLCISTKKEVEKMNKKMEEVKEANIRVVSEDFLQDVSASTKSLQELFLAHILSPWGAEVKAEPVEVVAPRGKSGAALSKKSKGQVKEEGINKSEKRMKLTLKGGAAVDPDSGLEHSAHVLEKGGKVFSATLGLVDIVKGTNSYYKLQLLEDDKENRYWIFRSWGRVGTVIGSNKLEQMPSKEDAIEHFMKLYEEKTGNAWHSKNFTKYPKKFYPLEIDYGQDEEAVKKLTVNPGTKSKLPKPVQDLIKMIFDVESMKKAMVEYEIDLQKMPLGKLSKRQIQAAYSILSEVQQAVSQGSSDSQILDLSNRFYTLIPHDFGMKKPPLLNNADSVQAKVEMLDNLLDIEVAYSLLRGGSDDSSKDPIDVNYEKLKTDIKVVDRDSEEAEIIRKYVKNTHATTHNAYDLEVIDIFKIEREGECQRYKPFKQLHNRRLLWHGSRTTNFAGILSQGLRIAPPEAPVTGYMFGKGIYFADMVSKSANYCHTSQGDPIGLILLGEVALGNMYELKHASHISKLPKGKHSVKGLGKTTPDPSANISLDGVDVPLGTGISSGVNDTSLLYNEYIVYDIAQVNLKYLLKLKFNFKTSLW

Row | Compound | pIC50 [1] | pIC50 [2] | inhibition [3] [%] | pIC50 (HeLa) | pIC50 (MCF7) | pIC50 (HCT-116) | pIC50 (MOLM-13) | pIC50 (MDA-MB-231) | pIC50 (MV4-11)
1 | O=C(c1cc(Cc2n[nH]c(=O)c3ccccc23)ccc1F)N1CCN(Cc2ccnc(Nc3cc(-c4ccc(F)c5ccoc45)c(F)cn3)c2)CC1 | 6.93 | 7.27 |  |  |  |  |  |  | 
2 | COc1cc(F)ccc1-c1cc(Nc2cc(CN3CCN(C(=O)c4cc(Cc5n[nH]c(=O)c6ccccc56)ccc4F)CC3)ccn2)ncc1F | 7.37 | 7.77 |  |  |  |  |  |  | 
3 | O=C(c1cc(Cc2n[nH]c(=O)c3ccccc23)ccc1F)N1CCN(Cc2ccnc(Nc3cc(-c4ccc(F)c5ccoc45)ncn3)c2)CC1 | 6.97 | 6.93 |  |  |  |  |  |  | 

Molecules with a higher pIC50 [1], results first:

Row | pIC50 [1] | pIC50 [2] | inhibition [3] [%] | pIC50 (HeLa) | pIC50 (MCF7) | pIC50 (HCT-116) | pIC50 (MOLM-13) | pIC50 (MDA-MB-231) | pIC50 (MV4-11) | Compound
4 | 7.85 | 6.50 |  |  |  |  |  |  |  | COc1ccc(OC)c(-c2cc(Nc3cc(CN4CCN(C(=O)c5cc(Cc6n[nH]c(=O)c7ccccc67)ccc5F)CC4)ccn3)ncn2)c1
5 | 8.00 | 7.54 | 73.9 | 5.92 | < 4.30 | 5.60 | 5.39 | < 4.30 | 5.85 | COc1ccc(-c2cc(Nc3cc(CN4CCN(C(=O)c5cc(Cc6n[nH]c(=O)c7ccccc67)ccc5F)CC4)ccn3)ncn2)c(OC)c1
6 | 7.49 | 7.23 |  |  |  |  |  |  |  | CCOc1cc(F)ccc1-c1cc(Nc2cc(CN3CCN(C(=O)c4cc(Cc5n[nH]c(=O)c6ccccc56)ccc4F)CC3)ccn2)ncc1F

From ChEMBL document CHEMBL6114988, “Design, synthesis and biological evaluation of dual CDK9/PARP inhibitors for the treatment of cancer” (Eur J Med Chem, 2025)
